# ChEMBL document CHEMBL3885861, “Open TG-GATES”
# Species: Rattus norvegicus
# Assay: Open TG-GATES - Regimen: Daily Repeat
# Assay type: toxicity, organism-based, Sprague-Dawley
# Design: regimen Daily Repeat, gender Male, age 6 weeks
# Settings: in vivo, iv, route intravenous injection; for APTT / Bas / Eos / Fbg / Hb / Ht / Lym / MCHC / MCV / Mono / Neu / PT / Plat / RBC / Ret / WBC / MCH: tissue Blood; for KIDNEY_L / KIDNEY_R / KIDNEY_TOTAL: tissue Kidney; for LIVER: tissue Liver
# [1] = 0 mg/kg, 72 h, dose level Control, time 3 day
# [2] = 0 mg/kg, 72 h, tissue Plasma, dose level Control, time 3 day
# [3] = 0 mg/kg, […], dose level Control, time 7 day
# [4] = 0 mg/kg, […], dose level Control, time 14 day
# [5] = 0 mg/kg, […], dose level Control, time 28 day
# [6] = 0 mg/kg, […], tissue Plasma, dose level Control, time 7 day
# [7] = 0 mg/kg, […], tissue Plasma, dose level Control, time 14 day
# [8] = 0 mg/kg, […], tissue Plasma, dose level Control, time 28 day
# [9] = 1 mg/kg, 72 h, dose level Low, time 3 day
# [10] = 1 mg/kg, 72 h, tissue Plasma, dose level Low, time 3 day
# [11] = 1 mg/kg, […], dose level Low, time 7 day
# [12] = 1 mg/kg, […], dose level Low, time 14 day
# [13] = 1 mg/kg, […], dose level Low, time 28 day
# [14] = 1 mg/kg, […], tissue Plasma, dose level Low, time 7 day
# [15] = 1 mg/kg, […], tissue Plasma, dose level Low, time 14 day
# [16] = 1 mg/kg, […], tissue Plasma, dose level Low, time 28 day
sequence,measurement,setting,value
CARBOPLATIN,TERMINAL_BW,[1],221.4 g
same,APTT,[1],23.3 s
same,Bas,[1],0%
same,Eos,[1],0.8%
same,Fbg,[1],298.8 mg/dL
same,Hb,[1],13 g/dL
same,Ht,[1],40.2%
same,Lym,[1],80.4%
same,MCHC,[1],32.2%
same,MCV,[1],63.6 fL
same,Mono,[1],2.6%
same,Neu,[1],15.4%
same,PT,[1],16.2 s
same,Plat,[1],127.8 x10_4/uL
same,RBC,[1],633 x10_4/ul
same,Ret,[1],5.4%
same,WBC,[1],112.5 x10_2/uL
same,KIDNEY_L,[1],1 g
same,KIDNEY_R,[1],1 g
same,KIDNEY_TOTAL,[1],2 g
same,ALP,[2],1505 IU/L
same,ALT,[2],38.6 IU/L
same,AST,[2],67.6 IU/L
same,BUN,[2],18 mg/dL
same,CRE,[2],0.2 mg/dL
same,DBIL,[2],0 mg/dL
same,GLC,[2],182.4 mg/dL
same,IP,[2],7.3 mg/dL
same,K,[2],4.6 meq/L
same,LDH,[2],206.4 IU/L
same,PL,[2],150 mg/dL
same,RALB,[2],3 g/dL
same,TBIL,[2],0.004 mg/dL
same,TC,[2],78.2 mg/dL
same,TG,[2],103 mg/dL
same,TP,[2],5.4 g/dL
same,gamma-GTP,[2],1.6 IU/L
same,TERMINAL_BW,[3],254.4 g
same,TERMINAL_BW,[4],298 g
same,TERMINAL_BW,[5],364.6 g
same,APTT,[3],23.5 s
same,Bas,[3],0%
same,Eos,[3],0.8%
same,Fbg,[3],312.2 mg/dL
same,Ht,[3],40.5%
same,Lym,[3],81.4%
same,MCH,[3],20.6 pg
same,MCHC,[3],32.4%
same,MCV,[3],63.6 fL
same,Mono,[3],2.4%
same,Plat,[3],123.2 x10_4/uL
same,RBC,[3],638.2 x10_4/ul
same,Ret,[3],4.9%
same,WBC,[3],120.2 x10_2/uL
same,APTT,[4],25.2 s
same,Bas,[4],0%
same,Eos,[4],1%
same,Fbg,[4],296.8 mg/dL
same,Hb,[4],13.6 g/dL
same,Ht,[4],40.5%
same,Lym,[4],80.8%
same,MCHC,[4],33.6%
same,MCV,[4],60.3 fL
same,Mono,[4],3.4%
same,Plat,[4],128.4 x10_4/uL
same,RBC,[4],672.4 x10_4/ul
same,Ret,[4],3.6%
same,WBC,[4],136.2 x10_2/uL
same,APTT,[5],24.2 s
same,Bas,[5],0%
same,Eos,[5],1%
same,Fbg,[5],308.6 mg/dL
same,Ht,[5],42.1%
same,Lym,[5],82.2%
same,MCH,[5],19.9 pg
same,MCV,[5],56.5 fL
same,Mono,[5],2.6%
same,PT,[5],16 s
same,Plat,[5],108.9 x10_4/uL
same,RBC,[5],746.2 x10_4/ul
same,Ret,[5],2.1%
same,WBC,[5],150.1 x10_2/uL
same,KIDNEY_L,[3],1.1 g
same,KIDNEY_R,[3],1.2 g
same,KIDNEY_TOTAL,[3],2.3 g
same,KIDNEY_L,[4],1.2 g
same,KIDNEY_R,[4],1.2 g
same,KIDNEY_TOTAL,[4],2.4 g
same,KIDNEY_L,[5],1.3 g
same,KIDNEY_R,[5],1.3 g
same,KIDNEY_TOTAL,[5],2.7 g
same,LIVER,[4],13.1 g
same,LIVER,[5],14.9 g
same,ALP,[6],1596.2 IU/L
same,ALT,[6],39 IU/L
same,AST,[6],70.6 IU/L
same,BUN,[6],17.6 mg/dL
same,CRE,[6],0.2 mg/dL
same,DBIL,[6],0 mg/dL
same,GLC,[6],182.6 mg/dL
same,IP,[6],7.8 mg/dL
same,K,[6],4.7 meq/L
same,LDH,[6],172.8 IU/L
same,PL,[6],144 mg/dL
same,RALB,[6],3.1 g/dL
same,TBIL,[6],0.002 mg/dL
same,TC,[6],74.6 mg/dL
same,TG,[6],87.8 mg/dL
same,TP,[6],5.6 g/dL
same,gamma-GTP,[6],2.2 IU/L
same,ALP,[7],1124 IU/L
same,ALT,[7],38.2 IU/L
same,AST,[7],68.8 IU/L
same,BUN,[7],17.2 mg/dL
same,CRE,[7],0.2 mg/dL
same,DBIL,[7],0 mg/dL
same,GLC,[7],203 mg/dL
same,IP,[7],6.9 mg/dL
same,K,[7],4.3 meq/L
same,LDH,[7],155.6 IU/L
same,Na,[7],140.4 meq/L
same,PL,[7],146 mg/dL
same,RALB,[7],3 g/dL
same,TBIL,[7],0.008 mg/dL
same,TC,[7],73.8 mg/dL
same,TG,[7],110.8 mg/dL
same,TP,[7],5.7 g/dL
same,gamma-GTP,[7],3.6 IU/L
same,ALP,[8],1264.8 IU/L
same,ALT,[8],43 IU/L
same,AST,[8],76.2 IU/L
same,BUN,[8],17.6 mg/dL
same,CRE,[8],0.2 mg/dL
same,DBIL,[8],0.002 mg/dL
same,IP,[8],7.1 mg/dL
same,K,[8],4.3 meq/L
same,LDH,[8],202 IU/L
same,PL,[8],138.6 mg/dL
same,RALB,[8],3 g/dL
same,TBIL,[8],0.01 mg/dL
same,TC,[8],67.2 mg/dL
same,TG,[8],113 mg/dL
same,TP,[8],6 g/dL
same,gamma-GTP,[8],2.2 IU/L
same,TERMINAL_BW,[9],215.8 g
same,APTT,[9],23.9 s
same,Bas,[9],0%
same,Eos,[9],0.8%
same,Fbg,[9],317.8 mg/dL
same,Hb,[9],13 g/dL
same,Lym,[9],83%
same,MCHC,[9],32.2%
same,Mono,[9],2.8%
same,Neu,[9],12.6%
same,PT,[9],16.2 s
same,Plat,[9],122.5 x10_4/uL
same,RBC,[9],647.8 x10_4/ul
same,Ret,[9],4.5%
same,WBC,[9],100.1 x10_2/uL
same,KIDNEY_L,[9],0.9 g
same,KIDNEY_R,[9],0.9 g
same,KIDNEY_TOTAL,[9],1.9 g
same,LIVER,[9],9.5 g
same,ALP,[10],1749.2 IU/L
same,ALT,[10],44.2 IU/L
same,AST,[10],72.8 IU/L
same,BUN,[10],16.6 mg/dL
same,CRE,[10],0.2 mg/dL
same,DBIL,[10],0 mg/dL
same,GLC,[10],175.8 mg/dL
same,IP,[10],6.9 mg/dL
same,K,[10],4.6 meq/L
same,LDH,[10],189.6 IU/L
same,PL,[10],147.8 mg/dL
same,RALB,[10],3.1 g/dL
same,TBIL,[10],0.004 mg/dL
same,TC,[10],76.2 mg/dL
same,TG,[10],106.8 mg/dL
same,TP,[10],5.5 g/dL
same,gamma-GTP,[10],1.4 IU/L
same,TERMINAL_BW,[11],248.6 g
same,TERMINAL_BW,[12],299.2 g
same,TERMINAL_BW,[13],348.7 g
same,APTT,[11],22.2 s
same,Bas,[11],0%
same,Eos,[11],1%
same,Fbg,[11],304 mg/dL
same,Ht,[11],40.7%
same,Lym,[11],80.8%
same,MCH,[11],19.9 pg
same,MCHC,[11],32.4%
same,Mono,[11],2.4%
same,Plat,[11],136.3 x10_4/uL
same,RBC,[11],662 x10_4/ul
same,Ret,[11],4.6%
same,WBC,[11],108.6 x10_2/uL
same,APTT,[12],26.4 s
same,Bas,[12],0%
same,Eos,[12],1%
same,Fbg,[12],302.2 mg/dL
same,Hb,[12],14.1 g/dL
same,Ht,[12],42.1%
same,Lym,[12],83.2%
same,MCHC,[12],33.4%
same,MCV,[12],60.3 fL
same,Mono,[12],2.5%
same,Neu,[12],12%
same,Plat,[12],111 x10_4/uL
same,RBC,[12],698.8 x10_4/ul
same,Ret,[12],3.1%
same,WBC,[12],122.2 x10_2/uL
same,APTT,[13],24.7 s
same,Bas,[13],0%
same,Eos,[13],1.2%
same,Fbg,[13],311.6 mg/dL
same,Ht,[13],42.3%
same,Lym,[13],83.2%
same,MCH,[13],19.1 pg
same,MCHC,[13],35.1%
same,MCV,[13],54.4 fL
same,Mono,[13],2.6%
same,Neu,[13],12%
same,Plat,[13],105.6 x10_4/uL
same,RBC,[13],777.8 x10_4/ul
same,Ret,[13],1.7%
same,WBC,[13],94.6 x10_2/uL
same,KIDNEY_L,[11],1 g
same,KIDNEY_R,[11],1 g
same,KIDNEY_TOTAL,[11],2 g
same,KIDNEY_L,[12],1.2 g
same,KIDNEY_R,[12],1.2 g
same,KIDNEY_TOTAL,[12],2.4 g
same,KIDNEY_L,[13],1.3 g
same,KIDNEY_R,[13],1.3 g
same,KIDNEY_TOTAL,[13],2.6 g
same,LIVER,[11],11.2 g
same,LIVER,[13],13.5 g
same,ALP,[14],1760.4 IU/L
same,ALT,[14],40.6 IU/L
same,AST,[14],75 IU/L
same,BUN,[14],16.4 mg/dL
same,CRE,[14],0.2 mg/dL
same,Ca,[14],11 mg/dL
same,DBIL,[14],0 mg/dL
same,IP,[14],7.5 mg/dL
same,K,[14],4.6 meq/L
same,LDH,[14],138.8 IU/L
same,Na,[14],140.2 meq/L
same,PL,[14],138.2 mg/dL
same,RALB,[14],3 g/dL
same,TBIL,[14],0.008 mg/dL
same,TG,[14],94.6 mg/dL
same,TP,[14],5.6 g/dL
same,gamma-GTP,[14],2.2 IU/L
same,ALP,[15],1603 IU/L
same,ALT,[15],38 IU/L
same,AST,[15],80.4 IU/L
same,BUN,[15],18 mg/dL
same,CRE,[15],0.2 mg/dL
same,DBIL,[15],0.004 mg/dL
same,GLC,[15],171.6 mg/dL
same,IP,[15],6.4 mg/dL
same,K,[15],4.5 meq/L
same,LDH,[15],160 IU/L
same,PL,[15],130.2 mg/dL
same,RALB,[15],3.1 g/dL
same,TBIL,[15],0.01 mg/dL
same,TC,[15],64.8 mg/dL
same,TG,[15],101.6 mg/dL
same,TP,[15],5.9 g/dL
same,gamma-GTP,[15],2.6 IU/L
same,ALP,[16],1005 IU/L
same,ALT,[16],40.4 IU/L
same,CRE,[16],0.2 mg/dL
same,DBIL,[16],0 mg/dL
same,GLC,[16],181 mg/dL
same,IP,[16],6 mg/dL
same,K,[16],4.2 meq/L
same,LDH,[16],140.2 IU/L
same,PL,[16],133.8 mg/dL
same,RALB,[16],3 g/dL
same,TBIL,[16],0.006 mg/dL
same,TC,[16],68.8 mg/dL
same,TG,[16],102.2 mg/dL
same,TP,[16],6 g/dL
same,gamma-GTP,[16],2.4 IU/L
